Each molecule was assayed against T1, recombinant human ALX receptor (Homo sapiens, UniProt P25090) (assay: Intracellular calcium measurements (FLIPR), ALX receptor agonistic activity). Details: HEK293-hALXR-Gα16 cells, Fluo-4 calcium signal, normalized to WKYMVm 10 nM.
T1 construct: expressed in transfected cells; host or cells: HEK293 (HEK293-hALXR-Gα16)
T1 sequence (P25090 1-351): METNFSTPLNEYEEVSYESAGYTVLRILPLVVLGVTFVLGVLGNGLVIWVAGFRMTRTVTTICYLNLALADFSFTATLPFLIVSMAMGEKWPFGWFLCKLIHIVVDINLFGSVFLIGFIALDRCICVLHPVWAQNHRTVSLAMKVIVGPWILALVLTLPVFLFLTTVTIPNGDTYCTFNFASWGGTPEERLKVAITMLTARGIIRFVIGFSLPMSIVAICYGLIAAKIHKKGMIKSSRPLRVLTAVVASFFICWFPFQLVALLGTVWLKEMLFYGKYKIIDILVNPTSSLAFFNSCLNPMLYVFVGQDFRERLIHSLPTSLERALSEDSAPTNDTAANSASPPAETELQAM
Type: cell-based
Procedure, shortened: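 Agonist-induced calcium flux was read by FLIPR (488/540 nm) as baseline-subtracted peak emission, expressed relative to WKYMVm at 10 nM final. Cells used: HEK293-hALXR-Gα16, dye-loaded 60 min at 37° C. with 1 μM Fluo-4 AM before compound dose-response addition.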

Structure (SMILES)	EC50
COc1ccc(C[C@@H](NC(=O)NC2CCN(Cc3ccccc3)C2)c2nc3ccccc3[nH]2)cc1 (stereo partly drawn) [Example 102, 1-((R)-1-(1H-Benzo[d]imidazol-2-yl)-2-(4-methoxyphenyl)ethyl)-3-(1-benzylpyrrolidin-3-yl)urea]	376 nM
COc1ccc(C[C@@H](NC(=O)Nc2ccc(OC)cc2)c2nc3ccccc3[nH]2)cc1 [Example 104, (R)-1-(1-(1H-Benzo[d]imidazol-2-yl)-2-(4-methoxyphenyl)ethyl)-3-(4-methoxyphenyl)urea]	257 nM
COc1ccc(C[C@@H](NC(=O)NC2(C)COC2)c2nc3ccccc3[nH]2)cc1 [Example 109, (R)-1-(1-(1H-Benzo[d]imidazol-2-yl)-2-(4-methoxyphenyl)ethyl)-3-(3-methyloxetan-3-yl)urea]	634 nM
COc1ccc(C[C@@H](NC(=O)NCCC(N)=O)c2nc3ccccc3[nH]2)cc1 [Example 110, (R)-3-(3-(1-(1H-Benzo[d]imidazol-2-yl)-2-(4-methoxyphenyl)ethyl)ureido)propanamide]	746 nM
COc1ccc(C[C@@H](NC(=O)N(CCO)C2CCCCC2)c2nc3ccccc3[nH]2)cc1 [Example 111, (R)-3-(1-(1H-Benzo[d]imidazol-2-yl)-2-(4-methoxyphenyl)ethyl)-1-cyclohexyl-1-(2-hydroxyethyl)urea]	142 nM
COc1ccc(C[C@@H](NC(=O)N2CC3CCC2CN3C(=O)OC(C)(C)C)c2nc3ccccc3[nH]2)cc1 (stereo partly drawn) [Example 112, tert-Butyl 5-(((R)-1-(1H-benzo[d]imidazol-2-yl)-2-(4-methoxyphenyl)ethyl)carbamoyl)-2,5-diazabicyclo[2.2.2]octane-2-carboxylate]	109 nM
COc1ccc(C[C@@H](NC(=O)N[C@H]2CCC[C@H]2O)c2nc3ccccc3[nH]2)cc1 [Example 114, 1-((R)-1-(1H-Benzo[d]imidazol-2-yl)-2-(4-methoxyphenyl)ethyl)-3-((1S,2R)-2-hydroxycyclopentyl)urea]	190 nM
COc1ccc(C[C@@H](NC(=O)N[C@H]2CCC[C@@H]2O)c2nc3ccccc3[nH]2)cc1 [Example 115, 1-((R)-1-(1H-Benzo[d]imidazol-2-yl)-2-(4-methoxyphenyl)ethyl)-3-((1S,2S)-2-hydroxycyclopentyl)urea]	143 nM
COc1ccc(C[C@@H](NC(=O)NC2CC(C)(C)N(C)C(C)(C)C2)c2nc3ccccc3[nH]2)cc1 [Example 116, (R)-1-(1-(1H-Benzo[d]imidazol-2-yl)-2-(4-methoxyphenyl)ethyl)-3-(1,2,2,6,6-pentamethylpiperidin-4-yl)urea]	63 nM
COc1ccc(C[C@@H](NC(=O)N[C@H]2CCN(C(=O)OC(C)(C)C)C2)c2nc3ccccc3[nH]2)cc1 [Example 119, (S)-tert-Butyl 3-(3-((R)-1-(1H-benzo[d]imidazol-2-yl)-2-(4-methoxyphenyl)ethyl)ureido)pyrrolidine-1-carboxylate]	539 nM
COc1ccc(C[C@@H](NC(=O)N2CCC3C2CCN3C(=O)OC(C)(C)C)c2nc3ccccc3[nH]2)cc1 (stereo partly drawn) [Example 121, tert-Butyl 4-(((R)-1-(1H-benzo[d]imidazol-2-yl)-2-(4-methoxyphenyl)ethyl)carbamoyl)hexahydropyrrolo[3,2-b]pyrrole-1 (2H)-carboxylate]	704 nM
COc1ccc(C[C@@H](NC(=O)N[C@H]2CC[C@H](O)CC2)c2nc3c(F)cccc3[nH]2)cc1 [Example 124, 1-((R)-1-(4-Fluoro-1H-benzo[d]imidazol-2-yl)-2-(4-methoxyphenyl)ethyl)-3-(trans-4-hydroxycyclohexyl)urea]	174 nM
COc1ccc(C[C@@H](NC(=O)N[C@@H]2CCNC2)c2nc3ccccc3[nH]2)cc1 [Example 125, 1-((R)-1-(1H-Benzo[d]imidazol-2-yl)-2-(4-methoxyphenyl)ethyl)-3-((R)-pyrrolidin-3-yl)urea]	82 nM
COc1ccc(C[C@@H](NC(=O)N[C@H]2CCNC2)c2nc3ccccc3[nH]2)cc1 [Example 126, 1-((R)-1-(1H-Benzo[d]imidazol-2-yl)-2-(4-methoxyphenyl)ethyl)-3-((S)-pyrrolidin-3-yl)urea]	601 nM
COc1ccc(C[C@@H](NC(=O)N2CCC3CNCC32)c2nc3ccccc3[nH]2)cc1 (stereo partly drawn) [Example 127, N—((R)-1-(1H-Benzo[d]imidazol-2-yl)-2-(4-methoxyphenyl)ethyl)hexahydropyrrolo[3,4-b]pyrrole-1(2H)-carboxamide]	246 nM
COc1ccc(C[C@@H](NC(=O)N2CCC3NCCC32)c2nc3ccccc3[nH]2)cc1 (stereo partly drawn) [Example 128, N—((R)-1-(1H-Benzo[d]imidazol-2-yl)-2-(4-methoxyphenyl)ethyl)hexahydropyrrolo[3,2-b]pyrrole-1(2H)-carboxamide]	308 nM
COc1ccc(C[C@@H](NC(=O)N2CC3CC2CN3)c2nc3ccccc3[nH]2)cc1 (stereo partly drawn) [Example 129, N—((R)-1-(1H-Benzo[d]imidazol-2-yl)-2-(4-methoxyphenyl)ethyl)-2,5-diazabicyclo[2.2.1]heptane-2-carboxamide]	279 nM
COc1ccc(C[C@@H](NC(=O)N2CCN(C(=O)OC(C)(C)C)CC2)c2nc3ccccc3[nH]2)cc1 [Example 130, (R)-tert-Butyl 4-((1-(1H-benzo[d]imidazol-2-yl)-2-(4-methoxyphenyl)ethyl)carbamoyl)piperazine-1-carboxylate]	1060 nM
COc1ccc(C[C@@H](NC(=O)N2CCN(C)CC2)c2nc3ccccc3[nH]2)cc1 [Example 136, (R)—N-(1-(1H-Benzo[d]imidazol-2-yl)-2-(4-methoxyphenyl)ethyl)-4-methylpiperazine-1-carboxamide]	387 nM
COc1ccc(C[C@@H](NC(=O)NCc2ccccc2OC)c2nc3ccccc3[nH]2)cc1 [Example 137]	726 nM
COc1ccc(C[C@@H](NC(=O)NC2CCN(C(C)=O)CC2)c2nc3ccccc3[nH]2)cc1 [Example 138, (R)-1-(1-(1H-Benzo[d]imidazol-2-yl)-2-(4-methoxyphenyl)ethyl)-3-(1-acetylpiperidin-4-yl)urea]	789 nM

Other lines, results leading:

EC50	Structure (SMILES)
14 nM	COc1ccc(C[C@@H](NC(=O)NC2CCN(CCc3ccccc3)CC2)c2nc3ccccc3[nH]2)cc1 [Example 105, (R)-1-(1-(1H-Benzo[d]imidazol-2-yl)-2-(4-methoxyphenyl)ethyl)-3-(1-phenethylpiperidin-4-yl)urea]
6 nM	COc1ccc(CC(NC(=O)NC2CCC(CCO)CC2)c2nc3ccccc3[nH]2)cc1 (stereo not drawn) [Example 107, 1-(1-(1H-Benzo[d]imidazol-2-yl)-2-(4-methoxyphenyl)ethyl)-3-(4-(2-hydroxyethyl)cyclohexyl)urea]
52 nM	COc1ccc(C[C@@H](NC(=O)NC2CCNCC2)c2nc3ccccc3[nH]2)cc1 [Example 108, (R)-1-(1-(1H-Benzo[d]imidazol-2-yl)-2-(4-methoxyphenyl)ethyl)-3-(piperidin-4-yl)urea]
20 nM	COc1ccc(C[C@@H](NC(=O)N[C@@H]2CCC[C@H]2O)c2nc3ccccc3[nH]2)cc1 [Example 113, 1-((R)-1-(1H-Benzo[d]imidazol-2-yl)-2-(4-methoxyphenyl)ethyl)-3-((1R,2R)-2-hydroxycyclopentyl)urea]
62 nM	COc1ccc(C[C@@H](NC(=O)NC2CCCN(C)C2)c2nc3ccccc3[nH]2)cc1 (stereo partly drawn) [Example 117, 1-((R)-1-(1H-Benzo[d]imidazol-2-yl)-2-(4-methoxyphenyl)ethyl)-3-(1-methylpiperidin-3-yl)urea]
25 nM	COc1ccc(C[C@@H](NC(=O)N[C@@H]2CCN(C(=O)OC(C)(C)C)C2)c2nc3ccccc3[nH]2)cc1 [Example 118, (R)-tert-Butyl 3-(3-((R)-1-(1H-benzo[d]imidazol-2-yl)-2-(4-methoxyphenyl)ethyl)ureido)pyrrolidine-1-carboxylate]
57 nM	COc1ccc(C[C@@H](NC(=O)N2CCC3CN(C(=O)OC(C)(C)C)CC32)c2nc3ccccc3[nH]2)cc1 (stereo partly drawn) [Example 120, tert-Butyl 1-(((R)-1-(1H-benzo[d]imidazol-2-yl)-2-(4-methoxyphenyl)ethyl)carbamoyl)hexahydropyrrolo[3,4-b]pyrrole-5(1H)-carboxylate]
59 nM	COc1ccc(C[C@@H](NC(=O)N2CC3CCC2CN3)c2nc3ccccc3[nH]2)cc1 (stereo partly drawn) [Example 122, N—((R)-1-(1H-Benzo[d]imidazol-2-yl)-2-(4-methoxyphenyl)ethyl)-2,5-diazabicyclo[2.2.2]octane-2-carboxamide]
44 nM	O=C(N[C@H](Cc1ccc(Cl)cc1)c1nc2ccccc2[nH]1)N[C@H]1CC[C@H](O)CC1 [Example 123, 1-((R)-1-(1H-Benzo[d]imidazol-2-yl)-2-(4-chlorophenyl)ethyl)-3-(trans-4-hydroxycyclohexyl)urea]
15 nM	COc1ccc(C[C@@H](NC(=O)N[C@@H]2CCCNC2)c2nc3ccccc3[nH]2)cc1 [Example 131, 1-((R)-1-(1H-Benzo[d]imidazol-2-yl)-2-(4-methoxyphenyl)ethyl)-3-((R)-piperidin-3-yl)urea]
23 nM	COc1ccc(C[C@@H](NC(=O)N[C@H]2CCCNC2)c2nc3ccccc3[nH]2)cc1 [Example 132, 1-((R)-1-(1H-Benzo[d]imidazol-2-yl)-2-(4-methoxyphenyl)ethyl)-3-((S)-piperidin-3-yl)urea]
3.4 nM	O=C(N[C@H](Cc1ccc(Br)cc1)c1nc2ccc(F)cc2[nH]1)N[C@H]1CC[C@H](O)CC1 [Example 133, 1-((R)-2-(4-Bromophenyl)-1-(6-fluoro-1H-benzo[d]imidazol-2-yl)ethyl)-3-(trans-4-hydroxycyclohexyl)urea]
